The text below walks through data of patent publication US20250215012A1, “IKZF2 DEGRADERS AND USES THEREOF” (REGENTS OF THE UNIVERSITY OF MICHIGAN, priority 2022, published 2025).

For the assay, the target named is IKZF2 (Homo sapiens (Human), UniProt Q96SW2+Q9UKS7). Nature of the assay: IKZF2 HiBiT Assay (Jurkat-IKZF2-HiBiT cell line). Particulars: Jurkat-IKZF2-HiBiT cells, 24 hours; for DC50: read-out: HiBit assay degradation analysis DC50; for Dmax: read-out: HiBit assay degradation analysis Dmax. In kind it is cell-based. In a few lines:
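Jurkat cells carrying HiBiT-tagged IKZF2 were exposed to serially diluted compound for 24 h at 37 °C. Remaining IKZF2 was measured by Nano-Glo HiBiT lytic luminescence after 10-20 min at room temperature. Signal was normalized to DMSO, and IC50 came from a four-parameter variable-slope fit.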
In general terms: HiBiT is a short tag that completes a luciferase, so light tracks the accessible tagged protein.

Chain of IKZF2 (Q9UKS7 whole entry): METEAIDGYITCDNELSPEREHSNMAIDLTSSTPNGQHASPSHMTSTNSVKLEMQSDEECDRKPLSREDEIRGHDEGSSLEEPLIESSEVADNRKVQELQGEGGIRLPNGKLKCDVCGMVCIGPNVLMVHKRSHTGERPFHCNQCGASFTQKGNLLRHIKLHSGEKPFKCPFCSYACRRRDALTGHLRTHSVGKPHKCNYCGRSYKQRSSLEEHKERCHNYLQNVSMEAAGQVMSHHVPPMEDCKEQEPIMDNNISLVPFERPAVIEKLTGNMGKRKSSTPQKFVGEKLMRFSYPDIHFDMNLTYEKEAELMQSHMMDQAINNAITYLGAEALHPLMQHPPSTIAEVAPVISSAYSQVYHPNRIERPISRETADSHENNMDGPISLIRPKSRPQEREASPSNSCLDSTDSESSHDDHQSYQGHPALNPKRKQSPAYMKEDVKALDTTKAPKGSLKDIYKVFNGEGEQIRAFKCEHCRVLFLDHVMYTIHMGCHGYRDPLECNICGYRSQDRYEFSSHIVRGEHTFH
Chain of IKZF2 (Q96SW2 whole entry): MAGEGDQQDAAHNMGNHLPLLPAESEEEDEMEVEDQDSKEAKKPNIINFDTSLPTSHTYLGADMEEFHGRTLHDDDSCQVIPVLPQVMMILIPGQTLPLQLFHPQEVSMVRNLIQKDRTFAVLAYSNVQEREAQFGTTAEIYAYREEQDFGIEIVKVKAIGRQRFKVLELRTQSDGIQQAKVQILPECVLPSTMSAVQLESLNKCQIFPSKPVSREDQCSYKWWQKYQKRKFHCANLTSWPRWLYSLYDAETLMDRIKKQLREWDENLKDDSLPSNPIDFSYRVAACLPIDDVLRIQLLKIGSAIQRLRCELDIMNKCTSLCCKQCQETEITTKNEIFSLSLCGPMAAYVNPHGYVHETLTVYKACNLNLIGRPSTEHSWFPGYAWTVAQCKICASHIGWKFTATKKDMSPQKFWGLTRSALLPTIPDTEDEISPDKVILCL
Chain of IKZF2 (Q16531 whole entry partner): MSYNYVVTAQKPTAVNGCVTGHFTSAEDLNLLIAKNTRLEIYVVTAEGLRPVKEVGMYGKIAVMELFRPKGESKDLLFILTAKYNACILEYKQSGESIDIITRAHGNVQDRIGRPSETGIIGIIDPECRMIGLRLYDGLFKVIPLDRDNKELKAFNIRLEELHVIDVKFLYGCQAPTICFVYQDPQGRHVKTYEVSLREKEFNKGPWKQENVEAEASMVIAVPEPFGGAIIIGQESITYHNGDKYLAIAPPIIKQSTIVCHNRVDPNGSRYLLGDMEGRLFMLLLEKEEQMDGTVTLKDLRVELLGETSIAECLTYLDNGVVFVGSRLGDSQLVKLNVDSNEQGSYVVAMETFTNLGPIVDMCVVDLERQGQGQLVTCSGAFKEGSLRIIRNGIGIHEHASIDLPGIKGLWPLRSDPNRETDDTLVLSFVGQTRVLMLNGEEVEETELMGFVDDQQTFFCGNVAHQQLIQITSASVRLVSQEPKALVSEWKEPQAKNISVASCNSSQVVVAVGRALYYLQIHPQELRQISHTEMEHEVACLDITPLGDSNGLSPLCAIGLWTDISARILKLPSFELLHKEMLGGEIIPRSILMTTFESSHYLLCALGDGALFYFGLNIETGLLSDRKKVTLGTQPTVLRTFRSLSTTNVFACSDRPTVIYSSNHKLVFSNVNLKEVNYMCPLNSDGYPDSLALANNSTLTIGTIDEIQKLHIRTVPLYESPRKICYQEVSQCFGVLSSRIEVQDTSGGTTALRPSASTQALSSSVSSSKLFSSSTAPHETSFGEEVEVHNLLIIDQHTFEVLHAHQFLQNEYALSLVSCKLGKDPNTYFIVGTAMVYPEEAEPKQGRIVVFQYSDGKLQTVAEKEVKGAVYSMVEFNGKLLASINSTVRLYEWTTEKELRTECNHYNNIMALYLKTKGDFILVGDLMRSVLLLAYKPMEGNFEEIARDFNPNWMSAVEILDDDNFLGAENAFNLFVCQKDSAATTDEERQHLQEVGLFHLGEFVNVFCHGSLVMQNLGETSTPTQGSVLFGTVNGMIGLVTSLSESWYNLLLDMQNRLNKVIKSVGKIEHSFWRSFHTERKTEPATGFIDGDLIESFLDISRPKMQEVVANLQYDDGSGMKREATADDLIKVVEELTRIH

Usually DC50 stands for the midpoint of the concentration-degradation curve. A word on the Dmax: it is the largest share of the target that was removed. Regarding `O=C1CC[C@H](N2Cc3c(ccc4c3OCC43CCN(C[C@H]4C[C@@H](Oc5ccc(F)cc5)C4)CC3)C2=O)C(=O)N1` [Compound A358, (S)-3-(1′-(((1s,3R)-3-(4-fluorophenoxy)cyclobutyl)methyl)-6-oxo-6,8-dihydro-2H,7H-spiro[furo[2,3-e]isoindole-3,4′-piperidin]-7-yl)piperidine-2,6-dione], the 50% degradation concentration (DC50) is > 500 nM and the Dmax is 40 to 60%.

As for `O=C1CC[C@H](N2Cc3c(ccc4c3OCC43CCN(Cc4cccc(-c5cnn(C[C@@H]6COCCO6)c5)c4)CC3)C2=O)C(=O)N1` [Compound A272, (S)-3-(1′-(3-(1-(((R)-1,4-dioxan-2-yl)methyl)-1H-pyrazol-4-yl)benzyl)-6-oxo-6,8-dihydro-2H,7H-spiro[furo[2,3-e]isoindole-3,4′-piperidin]-7-yl)piperidine-2,6-dione], the DC50 is 50 to 200 nM and the Dmax was in the range of 60 to 80%.

Turning to `Cc1nnc(-c2cccc(CN3CCC4(CC3)COc3c4ccc4c3CN(C3CCC(=O)NC3=O)C4=O)c2)o1` (stereo not shown) [Compound A151, 3-(1′-(3-(5-methyl-1,3,4-oxadiazol-2-yl)benzyl)-6-oxo-6,8-dihydro-2H,7H-spiro[furo[2,3-e]isoindole-3,4′-piperidin]-7-yl)piperidine-2,6-dione], the DC50 was 200 to 500 nM and the Dmax fell in the range of 40 to 60%.

For the molecule `O=C1CCC(N2Cc3c(ccc4c3OCC43CCN(Cc4cnn5c4CCCC5)CC3)C2=O)C(=O)N1` (stereo not shown) [Compound A245, 3-(6-oxo-1′-((4,5,6,7-tetrahydropyrazolo[1,5-a]pyridin-3-yl)methyl)-6,8-dihydro-2H,7H-spiro[furo[2,3-e]isoindole-3,4′-piperidin]-7-yl)piperidine-2,6-dione], the DC50 lay within 200 to 500 nM and the Dmax fell in the range of 40 to 60%.

Take `COc1cc(CN2CCC3(CC2)COc2c3ccc3c2CN([C@H]2CCC(=O)NC2=O)C3=O)cc(-c2cnn(C3COC3)c2)c1` [Compound A277]: the DC50 was < 50 nM and the Dmax was > 80%.

`O=C1CCC(N2Cc3c(ccc4c3OCC43CCN(CC4C5CC6CC(C5)CC4C6)CC3)C2=O)C(=O)N1` (stereo not shown) [Compound A23, 3-(1′-(((1r,3r,5r,7r)-adamantan-2-yl)methyl)-6-oxo-6,8-dihydro-2H,7H-spiro[furo[2,3-e]isoindole-3,4′-piperidin]-7-yl)piperidine-2,6-dione]: the DC50 was > 500 nM and the Dmax is < 40%.

With `O=C1CCC(N2Cc3c(ccc4c3OCC43CCN(Cc4cccc(C5CC5)c4)CC3)C2=O)C(=O)N1` (stereo not shown) [Compound A204, 3-(1′-(3-cyclopropylbenzyl)-6-oxo-6,8-dihydro-2H,7H-spiro[furo[2,3-e]isoindole-3,4′-piperidin]-7-yl)piperidine-2,6-dione], the DC50 was > 500 nM and the Dmax was 40 to 60%.

As for `O=C1CCC(N2Cc3c(ccc4c3OCC43CCN(Cc4c(F)ccc5occc45)CC3)C2=O)C(=O)N1` (stereo not shown) [Compound A223, 3-(1′-((5-fluorobenzofuran-4-yl)methyl)-6-oxo-6,8-dihydro-2H,7H-spiro[furo[2,3-e]isoindole-3,4′-piperidin]-7-yl)piperidine-2,6-dione], the DC50 lay in the range of 200 to 500 nM and the greatest degradation seen (Dmax) was 40 to 60%.

As for `Cn1cc2cccc(CN3CCC4(CC3)COc3c4ccc4c3CN(C3CCC(=O)NC3=O)C4=O)c2n1` (stereo not shown) [Compound A75, 3-(1′-((2-methyl-2H-indazol-7-yl)methyl)-6-oxo-6,8-dihydro-2H,7H-spiro[furo[2,3-e]isoindole-3,4′-piperidin]-7-yl)piperidine-2,6-dione], the DC50 lay within 50 to 200 nM and the Dmax lay within 60 to 80%.

As for `CC(C)(c1ccccc1)n1cc(CN2CCC3(CC2)COc2c3ccc3c2CN([C@H]2CCC(=O)NC2=O)C3=O)cn1` [Compound A346, (S)-3-(6-oxo-1′-((1-(2-phenylpropan-2-yl)-1H-pyrazol-4-yl)methyl)-6,8-dihydro-2H,7H-spiro[furo[2,3-e]isoindole-3,4′-piperidin]-7-yl)piperidine-2,6-dione], the DC50 is < 50 nM and the Dmax fell in the range of 60 to 80%.

In the case of `Cn1ccc2cccc(CN3CCC4(CC3)COc3c4ccc4c3CN(C3CCC(=O)NC3=O)C4=O)c21` (stereo not shown) [Compound A74, 3-(1′-((1-methyl-1H-indol-7-yl)methyl)-6-oxo-6,8-dihydro-2H,7H-spiro[furo[2,3-e]isoindole-3,4′-piperidin]-7-yl)piperidine-2,6-dione], the DC50 lay within 50 to 200 nM and the Dmax was 60 to 80%.

Regarding `O=C1CCC(N2Cc3c(ccc4c3OCC43CCN(Cc4cnn(CC5CCOCC5)c4)CC3)C2=O)C(=O)N1` (stereo not shown) [Compound A233, 3-(6-oxo-1′-((1-((tetrahydro-2H-pyran-4-yl)methyl)-1H-pyrazol-4-yl)methyl)-6,8-dihydro-2H,7H-spiro[furo[2,3-e]isoindole-3,4′-piperidin]-7-yl)piperidine-2,6-dione], the DC50 was in the range of 200 to 500 nM and the Dmax is 60 to 80%.

`O=C1CCC(N2Cc3c(ccc4c3OCC43CCN(Cc4cccc(-c5cnn(C6CC6)c5)c4)CC3)C2=O)C(=O)N1` (stereo not shown) [Compound A174, 3-(1′-(3-(1-cyclopropyl-1H-pyrazol-4-yl)benzyl)-6-oxo-6,8-dihydro-2H,7H-spiro[furo[2,3-e]isoindole-3,4′-piperidin]-7-yl)piperidine-2,6-dione]: the DC50 was < 50 nM and the Dmax was in the range of 60 to 80%.

Take `O=C1CCC(N2Cc3c(ccc4c3OCC43CCN(Cc4cccc5c4CCC5)CC3)C2=O)C(=O)N1` (stereo not shown) [Compound A207, 3-(1′-((2,3-dihydro-1H-inden-4-yl)methyl)-6-oxo-6,8-dihydro-2H,7H-spiro[furo[2,3-e]isoindole-3,4′-piperidin]-7-yl)piperidine-2,6-dione]: the DC50 is > 500 nM and the Dmax was < 40%.

As to `CS(=O)(=O)c1ccc(CN2CCC3(CC2)COc2c3ccc3c2CN(C2CCC(=O)NC2=O)C3=O)cc1` (stereo not shown) [Compound A236, 3-(1′-(4-(methylsulfonyl)benzyl)-6-oxo-6,8-dihydro-2H,7H-spiro[furo[2,3-e]isoindole-3,4′-piperidin]-7-yl)piperidine-2,6-dione], the DC50 is > 500 nM and the Dmax was < 40%.

As to `O=C1CCC(N2Cc3c(ccc4c3OCCC43CCNCC3)C2=O)C(=O)N1` (stereo not shown) [Compound A2, 3-(7′-oxo-2′,3′,7′,9′-tetrahydro-8′H-spiro[piperidine-4,4′-pyrano[2,3-e]isoindol]-8′-yl)piperidine-2,6-dione], the Dmax was < 40%.

As to `COCCn1ncc2cc(CN3CCC4(CC3)COc3c4ccc4c3CN(C3CCC(=O)NC3=O)C4=O)ccc21` (stereo not shown) [Compound A342, 3-(1′-((1-(2-methoxyethyl)-1H-indazol-5-yl)methyl)-6-oxo-6,8-dihydro-2H,7H-spiro[furo[2,3-e]isoindole-3,4′-piperidin]-7-yl)piperidine-2,6-dione], the DC50 is > 500 nM and the Dmax was < 40%.

With `O=C1CCC(N2Cc3c(ccc4c3OCC43CCN(CC4CCC(F)(F)CC4)CC3)C2=O)C(=O)N1` (stereo not shown) [Compound A17, 3-(1′-((4,4-difluorocyclohexyl)methyl)-6-oxo-6,8-dihydro-2H,7H-spiro[furo[2,3-e]isoindole-3,4′-piperidin]-7-yl)piperidine-2,6-dione], the DC50 was > 500 nM and the Dmax was in the range of 40 to 60%.

With `O=C1CCC(N2Cc3c(ccc4c3OCC43CCN(Cc4c[nH]c(-c5ccccc5)n4)CC3)C2=O)C(=O)N1` (stereo not shown) [Compound A84, 3-(6-oxo-1′-((2-phenyl-1H-imidazol-4-yl)methyl)-6,8-dihydro-2H,7H-spiro[furo[2,3-e]isoindole-3,4′-piperidin]-7-yl)piperidine-2,6-dione], the DC50 is > 500 nM and the Dmax is 40 to 60%.

For the molecule `Cn1ncc2ccc(CN3CCC4(CC3)COc3c4ccc4c3CN(C3CCC(=O)NC3=O)C4=O)cc21` (stereo not shown) [Compound A57, 3-(1′-((1-methyl-1H-indazol-6-yl)methyl)-6-oxo-6,8-dihydro-2H,7H-spiro[furo[2,3-e]isoindole-3,4′-piperidin]-7-yl)piperidine-2,6-dione], the DC50 was in the range of 50 to 200 nM and the Dmax is 60 to 80%.

Take `O=C1CC[C@H](N2Cc3c(ccc4c3OCC43CCN(Cc4cccc(-c5cnn(CC6COC6)c5)c4)CC3)C2=O)C(=O)N1` [Compound A271, (S)-3-(1′-(3-(1-(oxetan-3-ylmethyl)-1H-pyrazol-4-yl)benzyl)-6-oxo-6,8-dihydro-2H,7H-spiro[furo[2,3-e]isoindole-3,4′-piperidin]-7-yl)piperidine-2,6-dione]: the DC50 is > 500 nM and the Dmax was < 40%.

With `O=C1CCC(N2Cc3c(ccc4c3OCC43CCN(Cc4ccc(C5CC5)cc4)CC3)C2=O)C(=O)N1` (stereo not shown) [Compound A205, 3-(1′-(4-cyclopropylbenzyl)-6-oxo-6,8-dihydro-2H,7H-spiro[furo[2,3-e]isoindole-3,4′-piperidin]-7-yl)piperidine-2,6-dione], the DC50 lay within 200 to 500 nM and the Dmax lay within 40 to 60%.

For `O=C1CCC(N2Cc3c(ccc4c3OCC43CCN(CC4(c5ccccc5)CCC4)CC3)C2=O)C(=O)N1` (stereo not shown) [Compound A334, 3-(6-oxo-1′-((1-phenylcyclobutyl)methyl)-6,8-dihydro-2H,7H-spiro[furo[2,3-e]isoindole-3,4′-piperidin]-7-yl)piperidine-2,6-dione], the DC50 was > 500 nM and the Dmax fell in the range of 40 to 60%.

As to `O=C1CCC(N2Cc3c(ccc4c3OCC43CCN(Cc4ccccc4Cn4cccn4)CC3)C2=O)C(=O)N1` (stereo not shown) [Compound A155, 3-(1′-(2-((1H-pyrazol-1-yl)methyl)benzyl)-6-oxo-6,8-dihydro-2H,7H-spiro[furo[2,3-e]isoindole-3,4′-piperidin]-7-yl)piperidine-2,6-dione], the DC50 is > 500 nM and the Dmax was in the range of 40 to 60%.

For `O=C1CCC(N2Cc3c(ccc4c3OCC43CCN(Cc4ncsc4-c4ccccc4)CC3)C2=O)C(=O)N1` (stereo not shown) [Compound A158, 3-(6-oxo-1′-((5-phenylthiazol-4-yl)methyl)-6,8-dihydro-2H,7H-spiro[furo[2,3-e]isoindole-3,4′-piperidin]-7-yl)piperidine-2,6-dione], the DC50 was > 500 nM and the Dmax is < 40%.
